In assay [1] the target is T1, Neuropeptide Y receptor type 1 (Homo sapiens, UniProt P25929).
T1 sequence (P25929 whole entry): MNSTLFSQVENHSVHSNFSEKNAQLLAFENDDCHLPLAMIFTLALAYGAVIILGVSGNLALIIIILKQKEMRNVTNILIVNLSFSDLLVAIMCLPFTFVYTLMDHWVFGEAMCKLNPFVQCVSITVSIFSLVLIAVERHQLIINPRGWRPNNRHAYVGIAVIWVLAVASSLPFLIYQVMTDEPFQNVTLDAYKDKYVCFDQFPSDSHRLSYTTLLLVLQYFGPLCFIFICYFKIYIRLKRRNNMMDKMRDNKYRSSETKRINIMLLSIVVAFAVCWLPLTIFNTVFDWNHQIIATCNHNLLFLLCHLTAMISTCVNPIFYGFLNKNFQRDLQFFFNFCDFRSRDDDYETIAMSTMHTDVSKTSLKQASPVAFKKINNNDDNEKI
The experiment in a line: Fluorescence-based counterscreen for agonists of NPY-Y2: cell-based high-throughput dose response assay for agonists of NPY-Y1. In kind it is functional. For orientation: Counterscreens check selectivity or assay interference.

Another assay relates to HEK293. The experiment in a line: Fluorescence-based counterscreen for potentiators or agonists of NPY-Y2: cell-based high-throughput dose response assay to identify inhibitors of cyclic nucleotide gated ion channel (CNGC) activity. In this assay, the parental HEK293 cell line transfected with a cyclic-nucleotide gated ion channel (CNGC)-based cAMP sensor is used to measure inhibition of isoproterenol-induced CNGC activity by test compound. The note with it: Homo sapiens. In kind it is functional.

Assay [2] has as its target T1, Neuropeptide Y receptor type 1. The experiment in a line: Fluorescence-based counterscreen for potentiators or agonists of NPY-Y2: cell-based high-throughput dose response assay for potentiators or agonists of NPY-Y1. In kind it is functional.
Assay [3] addresses T2, Neuropeptide Y receptor type 2 (Homo sapiens, UniProt P49146).
T2 sequence (P49146 whole entry): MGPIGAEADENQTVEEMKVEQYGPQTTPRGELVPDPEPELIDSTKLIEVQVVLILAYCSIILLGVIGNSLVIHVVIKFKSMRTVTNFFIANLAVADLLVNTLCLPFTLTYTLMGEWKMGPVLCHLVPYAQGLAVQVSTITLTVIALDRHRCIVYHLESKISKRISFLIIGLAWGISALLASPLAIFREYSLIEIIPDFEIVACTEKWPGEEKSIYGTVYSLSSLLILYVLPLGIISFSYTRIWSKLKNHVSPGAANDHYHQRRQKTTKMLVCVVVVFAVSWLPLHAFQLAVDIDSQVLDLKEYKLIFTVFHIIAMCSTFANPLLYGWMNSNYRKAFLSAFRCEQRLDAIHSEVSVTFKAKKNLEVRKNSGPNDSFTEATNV
The experiment in a line: Fluorescence-based cell-based high-throughput dose response assay for potentiators or agonists of NPY-Y2. [Related pubchem assays: 1539 (Screening assay (NPY-Y2 potentiators or agonists).), 1703 (Screening assay (CNGC inhibitors).), 1359 (Screening assay (NPY-Y2 potentiators or agonists).), 1304 (Screening assay (NPY-Y1 potentiators or agonists).) …. It counts as functional.

For assay [4], the target named is T2, Neuropeptide Y receptor type 2. The experiment in a line: Fluorescence-based cell-based high-throughput dose response assay for agonists of NPY-Y2. [Related pubchem assays: 1703 (Screening assay (CNGC inhibitors).), 1359 (Screening assay (NPY-Y2 potentiators or agonists).), 1304 (Screening assay (NPY-Y1 potentiators or agonists).), 1710 (Screening assay (NPY-Y2 agonists).), 1791 (Summary AID.)]. It counts as functional.

The target in another assay is Cytochrome P450 2C9 (Homo sapiens, UniProt P11712). The note with it: Potency.
A short description of assay [5]: Luminescence Cell-Based Dose Confirmation HTS to Identify Activators of 5'UTR Stem-Loop Driven Alpha-Synuclein mRNA Translation in H4 Neuroglioblastoma Cells. [Related pubchem assays: 1829 (Project Summary), 1814 (Primary HTS)]. It counts as functional.
A further assay concerns H4. Kind of assay: Luminescence Cell-Based Dose Response HTS to Identify Activators of 5'UTR Stem-Loop Driven Prion Protein mRNA Translation in H4 Neuroglioblastoma Cells. [Related pubchem assays: 1829 (Project Summary), 1814 (Primary HTS)]. It counts as functional. The note with it: Homo sapiens.
The nature of assay [6]: viability of uninfected HEp-2 cells – cell-based, HTS, cytotoxicity control for RSV inhibitor project, dose response (AID 2410). In kind it is functional. Conditions: human respiratory syncytial virus.
The target of assay [7] is T3, Mannose-6-phosphate isomerase (Homo sapiens, UniProt P34949).
T3 sequence (P34949 whole entry): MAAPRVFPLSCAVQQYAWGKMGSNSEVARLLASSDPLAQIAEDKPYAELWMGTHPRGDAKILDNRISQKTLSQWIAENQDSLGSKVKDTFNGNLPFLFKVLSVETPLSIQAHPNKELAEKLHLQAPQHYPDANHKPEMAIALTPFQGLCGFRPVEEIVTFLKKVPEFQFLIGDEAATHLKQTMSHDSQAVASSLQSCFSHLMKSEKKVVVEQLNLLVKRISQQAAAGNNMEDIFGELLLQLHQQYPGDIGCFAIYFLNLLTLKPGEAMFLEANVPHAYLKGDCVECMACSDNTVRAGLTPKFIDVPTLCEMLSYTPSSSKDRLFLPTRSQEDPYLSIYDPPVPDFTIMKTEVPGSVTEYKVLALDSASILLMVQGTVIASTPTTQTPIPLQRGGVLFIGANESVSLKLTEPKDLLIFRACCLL
Kind of assay: MPI enzyme activity inhibition – biochemical, fluorescence intensity, coupled assay, primary screen (AID 1209).

Assay [8] has as its target T3, Mannose-6-phosphate isomerase. Kind of assay: MPI inhibition at elevated mannose 6-phosphate – biochemical, fluorescence intensity, high mannose 6-phosphate, primary screen (AID 1220).
Assay [9] can be described thus: Luminescence Cell-Based Dose Response HTS to Identify Activators of Luciferase Translation or Activity in H4 […] Cells. [Related pubchem assays: 1829 (Project Summary), 1814 (Primary HTS)]. In kind it is functional.
The next assay can be described thus: cells. In kind it is functional, cell-based.
The nature of assay [10]: luciferase reporter signal reduction – luminescence, H4-C neuroglioblastoma cells, dose response (AID 2458).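 Further: H4 neuroglioblastoma cells stably carrying a luciferase reporter gene fusion.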 It counts as functional, cell-based. (In general: Reporter assays use an easily measured gene product as a stand-in for the process of interest.)
Assay [11] is described as follows: alpha-synuclein stem-loop luciferase translation blockers – H4 neuroglioma cells, luminescence, confirmation (AID 1988). In kind it is functional, cell-based.
In assay [12] the test system is BJ. Kind of assay: BJ-TERT-LT-ST fibroblast viability loss – cell-based, RAS-independent, luminescence, dose response (AID 1935).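 Further: BJ fibroblasts immortalized with TERT plus LT and ST oncogenes.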 It counts as functional. The note with it: Homo sapiens.
Assay [13] deals with BJ. The experiment in a line: cells. In kind it is functional, cell-based. The note with it: Homo sapiens.
The subject of assay [14] is BJ. The experiment in a line: BJ-TERT fibroblast viability loss – cell-based, RAS-independent, luminescence, dose response (AID 1933). In kind it is functional. The note with it: Homo sapiens.
The nature of assay [15]: Luminescence Cell-Based Dose Response HTS to Identify Inhibitors of 5'UTR Stem-Loop Driven Prion Protein mRNA Translation in H4 Neuroglioblastoma Cells. [Related pubchem assays: 1827 (Project Summary), 1813 (Primary HTS)]. It counts as functional.
A short description of assay [16]: DRD fibroblast viability loss – cell-based, non-viral oncogenic, luminescence, dose response (AID 1934). It counts as functional. Conditions: Homo sapiens.
A short description of assay [17]: alpha-synuclein stem-loop translation blockers – luminescence, H4 neuroglioblastoma cells, dose confirmation, confirmation (AID 2454).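 Further: H4 neuroglioblastoma cells carrying an alpha-synuclein 5'UTR luciferase reporter; potency for inhibition of the luciferase signal.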 It counts as functional, cell-based.
For assay [18], the system named is BJ. Kind of assay: growth inhibition of engineered Ras-driven BJ cells – cell-based, alamar blue fluorescence, cherrypicked samples, dose response (AID 2631).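 Further: confirmatory dose-response assay in RAS-dependent BJ fibroblasts engineered with TERT, LT and ST, with cytotoxicity read by fluorescence.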 The note with it: Homo sapiens. In kind it is functional. (In general: Alamar Blue is a resazurin reagent that responds to reducing activity.)
The nature of assay [19]: luciferase reporter signal suppression in cells – H4 neuroglioma cells, luminescence, dose response (AID 1990). In kind it is functional, cell-based.
In assay [20] the target is Dual specificity protein phosphatase 3 (Homo sapiens, UniProt P51452). Kind of assay: inhibition constants for human DUSP3 – biochemical, colorimetric, SAR follow-up (AID 2004).
Assay [21] concerns the target Induced myeloid leukemia cell differentiation protein Mcl-1 (Homo sapiens, UniProt Q07820). It counts as functional.
Assay [22] can be described thus: IC50 of Artemis nuclease activity blockers – biochemical, fluorescence intensity, dose response (AID 720701).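 Further: Artemis endonuclease enzyme.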 In kind it is functional.
The target in assay [23] is T4, Carboxy-terminal domain RNA polymerase II polypeptide A small phosphatase 1 (Homo sapiens, UniProt Q9GZU7).
T4 sequence (Q9GZU7 whole entry): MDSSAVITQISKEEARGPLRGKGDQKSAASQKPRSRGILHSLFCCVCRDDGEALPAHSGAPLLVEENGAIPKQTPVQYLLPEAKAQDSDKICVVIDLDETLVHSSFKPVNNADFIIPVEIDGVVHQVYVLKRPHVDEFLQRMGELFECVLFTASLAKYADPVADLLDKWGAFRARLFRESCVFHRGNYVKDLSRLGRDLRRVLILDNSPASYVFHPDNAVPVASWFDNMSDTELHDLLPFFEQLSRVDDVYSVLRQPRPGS
The experiment in a line: CTDSP1 inhibitors, concentration-response, biochemical, absorbance readout, ultra-high-throughput screen actives (AID 540297). In kind it is functional.

The target in a further assay is NS3 (Hepatitis C virus, UniProt A3EZJ3). The experiment in a line: PubChem AID 2173. Also noted: species or system Hepacivirus hominis.

Calls of active or inactive are those of the source.

Chain of Induced myeloid leukemia cell differentiation protein Mcl-1 (Q07820 whole entry): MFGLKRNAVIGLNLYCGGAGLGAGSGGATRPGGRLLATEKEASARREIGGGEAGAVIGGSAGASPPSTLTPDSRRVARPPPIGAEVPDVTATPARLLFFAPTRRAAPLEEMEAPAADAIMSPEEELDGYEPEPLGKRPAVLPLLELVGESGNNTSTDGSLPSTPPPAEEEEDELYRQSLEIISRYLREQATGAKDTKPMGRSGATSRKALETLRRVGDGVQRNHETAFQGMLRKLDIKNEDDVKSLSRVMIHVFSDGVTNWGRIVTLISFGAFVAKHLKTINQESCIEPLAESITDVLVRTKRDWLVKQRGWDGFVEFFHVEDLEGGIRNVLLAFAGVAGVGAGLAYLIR
Chain of NS3 (A3EZJ3 whole entry): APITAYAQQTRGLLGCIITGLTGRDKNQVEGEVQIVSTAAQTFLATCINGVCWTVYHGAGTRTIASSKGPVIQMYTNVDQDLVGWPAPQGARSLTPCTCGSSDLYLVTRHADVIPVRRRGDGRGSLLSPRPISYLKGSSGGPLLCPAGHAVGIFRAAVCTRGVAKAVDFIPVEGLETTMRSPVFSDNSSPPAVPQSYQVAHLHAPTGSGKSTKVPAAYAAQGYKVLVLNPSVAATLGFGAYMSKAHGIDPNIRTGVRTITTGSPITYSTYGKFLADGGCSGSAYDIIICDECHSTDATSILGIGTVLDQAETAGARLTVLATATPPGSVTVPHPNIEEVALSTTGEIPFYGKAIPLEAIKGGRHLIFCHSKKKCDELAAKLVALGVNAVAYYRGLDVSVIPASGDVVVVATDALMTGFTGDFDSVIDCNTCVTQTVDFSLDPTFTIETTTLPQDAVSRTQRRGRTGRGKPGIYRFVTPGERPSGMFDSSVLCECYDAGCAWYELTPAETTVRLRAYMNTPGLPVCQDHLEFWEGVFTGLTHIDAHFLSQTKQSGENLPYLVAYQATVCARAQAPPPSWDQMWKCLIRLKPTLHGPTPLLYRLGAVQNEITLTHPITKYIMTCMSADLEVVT
Chain of Dual specificity protein phosphatase 3 (P51452 whole entry): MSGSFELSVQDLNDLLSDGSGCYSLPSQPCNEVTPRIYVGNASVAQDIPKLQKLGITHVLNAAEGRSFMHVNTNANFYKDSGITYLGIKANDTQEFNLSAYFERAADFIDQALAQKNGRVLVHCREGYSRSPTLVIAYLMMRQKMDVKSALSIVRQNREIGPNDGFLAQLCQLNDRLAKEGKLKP
Chain of Cytochrome P450 2C9 (P11712 whole entry): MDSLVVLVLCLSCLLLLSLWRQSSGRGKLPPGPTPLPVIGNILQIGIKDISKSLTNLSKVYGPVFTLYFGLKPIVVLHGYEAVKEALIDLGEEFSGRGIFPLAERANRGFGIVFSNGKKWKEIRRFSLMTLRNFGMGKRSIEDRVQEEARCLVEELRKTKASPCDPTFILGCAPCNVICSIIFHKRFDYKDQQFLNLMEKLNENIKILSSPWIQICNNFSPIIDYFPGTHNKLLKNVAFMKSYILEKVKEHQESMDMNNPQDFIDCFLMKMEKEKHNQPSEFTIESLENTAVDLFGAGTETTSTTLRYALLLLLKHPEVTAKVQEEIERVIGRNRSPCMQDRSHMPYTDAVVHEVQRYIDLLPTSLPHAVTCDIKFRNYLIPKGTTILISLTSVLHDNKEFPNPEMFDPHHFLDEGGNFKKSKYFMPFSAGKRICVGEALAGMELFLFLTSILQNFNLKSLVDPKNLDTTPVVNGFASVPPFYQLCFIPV

By EC50 is commonly meant the concentration giving half of the maximal effect. Consider `CCN(CC)CC(O)Cn1c2ccccc2c2ccccc21` (stereo not drawn), for which the concentration for a half-maximal effect (EC50) in [1] is 12.5 µM (not active); with HEK293, 1.49 µM (active); in [2], > 35.4 µM (not active); in assay [3] it was > 35.4 µM (not active); in assay [4], 29.6 µM (not active).
A word on the AC50: it is the midpoint of the concentration-response curve, whichever way the signal moves. Consider `C=CCOC(=O)C(C(C)=O)C(NC(=O)OC)c1ccc(Cl)cc1` (stereo not drawn), for which the AC50 on Cytochrome P450 2C9 was 3.16 µM (inconclusive).
As a reminder, the CC50 is the concentration that lowers cell viability or growth by half. A word on the IC50: it is the concentration needed to halve the response being measured. For `CCOC(=O)c1c(C)oc2c1c1c(c3ccccc32)OCN(Cc2ccccn2)C1`, the figures for the EC50 (in assay [5]; in the assay on H4; in assay [9]) were 1.87 µM (active), 0.816 µM (active) and 12.9 µM (active), respectively. Also, in assay [6], the half-maximal cytotoxic concentration (CC50) was 40.2 µM (active). The IC50 in [7] and in assay [8] was > 50 µM (not active) in each case.
With `COc1ccc(S(=O)(=O)N2c3ccc(F)cc3CCC2C)cc1` (stereo not drawn), the EC50 in “cells” was > 12 µM (inconclusive); in [10], 0.757 µM (active); in assay [11], < 0.1 µM (active); with BJ [12], 0.716 µM (inconclusive); with BJ [13], 1.21 µM (inconclusive); with BJ [14], 0.675 µM (active). The EC50 in assay [15] is < 0.1 µM (active); in [16] it was 0.776 µM (active); in assay [17], 1.01 µM (active); in the assay on BJ [18], 0.25 µM (active); in assay [19] it was 1.8 µM (active).
In general, Ki refers to the equilibrium dissociation constant of an inhibitor or competing ligand from its target. As for `Cc1cccc(COc2ccc3c(c2)oc(=O)c2ccccc23)c1`, the Ki in assay [20] was 26.4 µM (inactive).
Consider `O=C(Nc1nc(-c2ccco2)c(-c2ccco2)s1)C1CC(=O)N(c2ccc3c(c2)OCCO3)C1` (stereo not drawn), for which the IC50 in assay [21] was 4.4 µM (active); in assay [22], > 20 µM (inactive); in assay [23] it was 3.1 µM (active); on NS3 it was 26.3 µM (not active).

The values are drawn from ChEMBL document CHEMBL1201862, “PubChem BioAssay data set” (2004).
